Measured values reported in patent US8658568B2, “6-amino-2-substituted-5-vinylsilylpyrimidine-4-carboxylic acids and esters and 4-amino-6-substituted-3-vinylsilylpyridine-2-carboxylic acids and esters as herbicides” (Dow AgroSciences, LLC., priority 2011, dated 2014).

Tests used:
[1] = system: ABUTH = velvetleaf (Abutilon theophrasti); experiment: Postemergence herbicidal activity, velvetleaf; assay type: in vivo; conditions: post-emergence, 336 h, post-emergent, visual score after 14 days (0 no injury, 100 complete kill), read-out: % Growth Reduction ABUTH; for pest or weed control at 140 g/ha: rate 140 g ai/ha; for pest or weed control at 280 g/ha: rate 280 g ai/ha
Method: (§1) Evaluation of Postemergence Herbicidal Activity
(§2) Seeds or nutlets of the desired test plant species were planted in Sun Gro MetroMix® 306 planting mixture, which typically has a pH of 6.0 to 6.8 and an organic matter content of about 30 percent, in plastic pots with a surface area of 64 square centimeters. When required to ensure good germination and healthy plants, a fungicide treatment and/or other chemical or physical treatment was applied. The plants were grown for 7-21 days in a greenhouse with an approximate 15 hour photoperiod which was maintained at about 23-29° C. during the day and 22-28° C. during the night. Nutrients and water were added on a regular basis and supplemental lighting was provided with overhead metal halide 1000-Watt lamps as necessary. The plants were employed for testing when they reached the first or second true leaf stage.
(§3) A weighed amount, determined by the highest rate to be tested, of each test compound was placed in a 25 mL glass vial and was dissolved in 4 mL of a 97:3 v/v (volume/volume) mixture of acetone and dimethyl sulfoxide (DMSO) to obtain concentrated stock solutions. […] The concentrated stock solutions obtained were diluted with 20 mL of an aqueous mixture containing acetone, water, isopropyl alcohol, DMSO, Atplus 411F crop oil concentrate, and Triton® X-155 surfactant in a 48.5:39:10:1.5:1.0:0.02 v/v ratio to obtain spray solutions containing the highest application rates. Additional application rates were obtained by serial dilution of 12 mL of the high rate solution into a solution containing 2 mL of 97:3 (v/v) mixture of acetone and dimethyl sulfoxide (DMSO) and 10 mL of an aqueous mixture containing acetone, water, isopropyl alcohol, DMSO, Atplus 411F crop oil concentrate, and Triton X-155 surfactant in a 48.5:39:10:1.5:1.0:0.02 (v/v) ratio to obtain 1/2 ×, 1/4 ×, 1/8× and 1/16× rates of the high rate. Compound requirements are based upon a 12 mL application volume at a rate of 187 L/ha. Formulated compounds were applied to the plant material with an overhead Mandel track sprayer equipped with a 8002E nozzles calibrated to deliver 187 L/ha over an application area of 0.503 square meters at a spray height of 18 inches (43 cm) above the average plant canopy height. Control plants were sprayed in the same manner with the solvent blank.
(§4) The treated plants and control plants were placed in a greenhouse as described above and watered by sub-irrigation to prevent wash-off of the test compounds. After 14 days, the condition of the test plants as compared with that of the untreated plants was determined visually and scored on a scale of 0 to 100 percent where 0 corresponds to no injury and 100 corresponds to complete kill
(§5) By applying the well-accepted probit analysis as described by J. Berkson in Journal of the […], 48, 565 (1953) and by D. Finney in “Probit Analysis” Cambridge University Press (1952), the above data can be used to calculate GR50 and GR80 values, which are defined as growth reduction factors that correspond to the effective dose of herbicide required to kill or control 50 percent or 80 percent, respectively, of a target plant.

[2] = system: AMARE = redroot pigweed (Amaranthus retroflexus); experiment: Postemergence herbicidal activity, redroot pigweed; assay type: in vivo; conditions: post-emergence, 336 h, post-emergent, rate 140 g ai/ha, visual score after 14 days (0 no injury, 100 complete kill), read-out: % Growth Reduction AMARE
Method: as §1, §2, §3, §4, §5

[3] = system: ECHCG = barnyardgrass (Echinochloa crus-galli); experiment: Postemergence herbicidal activity, barnyardgrass; assay type: in vivo; conditions: post-emergence, 336 h, post-emergent, visual score after 14 days (0 no injury, 100 complete kill), read-out: % Growth Reduction ECHCG; for pest or weed control at 140 g/ha: rate 140 g ai/ha; for pest or weed control at 280 g/ha: rate 280 g ai/ha
Method: as §1, §2, §3, §4, §5

[4] = system: HELAN = sunflower (Helianthus annuus); experiment: Postemergence herbicidal activity, sunflower; assay type: in vivo; conditions: post-emergence, 336 h, post-emergent, visual score after 14 days (0 no injury, 100 complete kill), read-out: % Growth Reduction HELAN; for pest or weed control at 140 g/ha: rate 140 g ai/ha; for pest or weed control at 280 g/ha: rate 280 g ai/ha
Method: as §1, §2, §3, §4, §5

[5] = system: CHEAL = lambsquarters (Chenopodium album); experiment: Postemergence herbicidal activity, lambsquarters; assay type: in vivo; conditions: post-emergence, 336 h, post-emergent, visual score after 14 days (0 no injury, 100 complete kill), read-out: % Growth Reduction CHEAL; for pest or weed control at 140 g/ha: rate 140 g ai/ha; for pest or weed control at 280 g/ha: rate 280 g ai/ha
Method: as §1, §2, §3, §4, §5

[6] = system: IPOHE = ivyleaf morningglory (Ipomoea hederacea); experiment: Postemergence herbicidal activity, ivyleaf morningglory; assay type: in vivo; conditions: post-emergence, 336 h, post-emergent, visual score after 14 days (0 no injury, 100 complete kill), read-out: % Growth Reduction IPOHE; for pest or weed control at 140 g/ha: rate 140 g ai/ha; for pest or weed control at 280 g/ha: rate 280 g ai/ha
Method: as §1, §2, §3, §4, §5

[7] = system: EPHHL = wild poinsettia (Euphorbia heterophylla); experiment: Postemergence herbicidal activity, wild poinsettia; assay type: in vivo; conditions: post-emergence, 336 h, post-emergent, visual score after 14 days (0 no injury, 100 complete kill), read-out: % Growth Reduction EPHHL; for pest or weed control at 140 g/ha: rate 140 g ai/ha; for pest or weed control at 280 g/ha: rate 280 g ai/ha
Method: as §1, §2, §3, §4, §5

SMILES	pest or weed control at 140 g/ha [1] [%]	pest or weed control at 140 g/ha [2] [%]	pest or weed control at 140 g/ha [3] [%]	pest or weed control at 140 g/ha [4] [%]	pest or weed control at 140 g/ha [5] [%]	pest or weed control at 140 g/ha [6] [%]	pest or weed control at 140 g/ha [7] [%]	pest or weed control at 280 g/ha [1] [%]	pest or weed control at 280 g/ha [3] [%]	pest or weed control at 280 g/ha [4] [%]	pest or weed control at 280 g/ha [5] [%]	pest or weed control at 280 g/ha [6] [%]	pest or weed control at 280 g/ha [7] [%]	melting point [°C]
C[Si](C)(C)/C=C/c1c(C(=O)O)nc(-c2ccc(Cl)cc2)c(F)c1N [Compound 15, (E)-4-amino-6-(4-chlorophenyl)-5-fluoro-3-(2-(trimethylsilyl)vinyl)picolinic acid]	80	100	80	90	90	70	90	–	–	–	–	–	–	–
COc1c(Cl)ccc(-c2nc(N)c(/C=C/[Si](O)(O)O)c(C(=O)O)n2)c1F [Compound 10, (E)-6-amino-2-(4-chloro-2-fluoro-3-methoxyphenyl)-5-(2-(trihydroxysilyl)vinyl)pyrimidine-4-carboxylic acid]	100	–	80	100	100	80	100	–	–	–	–	–	–	–
COC(=O)c1nc(-c2ccc(Cl)c(F)c2)c(F)c(N)c1/C=C/[Si](C)(C)C [Compound 11, (E)-methyl 4-amino-6-(4-chloro-3-fluorophenyl)-5-fluoro-3-(2-(trimethylsilyl)vinyl)picolinate]	80	100	0	90	100	70	80	–	–	–	–	–	–	–
CCO[Si](/C=C/c1c(N)nc(-c2ccc(Cl)c(OC)c2F)nc1C(=O)OC)(OCC)OCC [Compound 9, (E)-methyl 6-amino-2-(4-chloro-2-fluoro-3-methoxyphenyl)-5-(2-(triethoxysilyl)vinyl)pyrimidine-4-carboxylate]	100	–	80	90	100	80	100	–	–	–	–	–	–	–
C[Si](C)(C)/C=C/c1c(N)nc(-c2ccc(Cl)cc2F)nc1C(=O)O [Compound 7, (E)-6-amino-2-(4-chloro-2-fluorophenyl)-5-(2-(trimethylsilyl)vinyl)pyrimidine-4-carboxylic acid]	100	100	80	90	100	70	100	–	–	–	–	–	–	–
C[Si](C)(C)/C=C/c1c(N)nc(C2CC2)nc1C(=O)O [Compound 8, (E)-6-amino-2-cyclopropyl-5-(2-(trimethylsilyl)vinyl)pyrimidine-4-carboxylic acid]	–	–	–	–	–	–	–	0	0	65	65	78	100	–
CCc1nc(C(=O)O)c(/C=C/[Si](C)(C)C)c(N)c1F [Compound 16, (E)-4-amino-6-ethyl-5-fluoro-3-(2-(trimethylsilyl)vinyl)picolinic acid]	–	–	–	–	–	–	–	5	0	20	10	60	0	–
C[Si](C)(C)/C=C/c1c(N)nc(-c2ccc(Cl)c(F)c2F)nc1C(=O)O [Compound 5, (E)-6-amino-2-(4-chloro-2,3-difluorophenyl)-5-(2-(trimethylsilyl)vinyl)pyrimidine-4-carboxylic acid]	100	90	50	90	100	60	100	–	–	–	–	–	–	–
COC(=O)c1nc(-c2ccc(Cl)cc2F)nc(N)c1/C=C/[Si](C)(C)C [Compound 3, (E)-methyl 6-amino-2-(4-chloro-2-fluorophenyl)-5-(2-(trimethylsilyl)vinyl)pyrimidine-4-carboxylate]	100	100	0	90	100	70	100	–	–	–	–	–	–	–
COC(=O)c1nc(-c2ccc(Cl)c(OC)c2F)nc(N)c1/C=C/[Si](C)(C)C [Compound 2, (E)-methyl 6-amino-2-(4-chloro-2-fluoro-3-methoxyphenyl)-5-(2-(trimethylsilyl)vinyl)-pyrimidine-4-carboxylate]	98	100	98	100	–	90	100	–	–	–	–	–	–	161 to 163
C[Si](C)(C)/C=C/c1c(C(=O)O)nc(-c2ccc(Cl)c(F)c2)c(F)c1N [Compound 14, (E)-4-amino-6-(4-chloro-3-fluorophenyl)-5-fluoro-3-(2-(trimethylsilyl)vinyl)picolinic acid]	65	–	70	80	100	80	100	–	–	–	–	–	–	–
CCOC(=O)c1nc(C2CC2)nc(N)c1/C=C/[Si](C)(C)C [Compound 4, (E)-ethyl 6-amino-2-cyclopropyl-5-(2-(trimethylsilyl)vinyl)pyrimidine-4-carboxylate]	0	–	0	0	100	100	100	–	–	–	–	–	–	–
COC(=O)c1nc(-c2ccc(Cl)c(F)c2F)nc(N)c1/C=C/[Si](C)(C)C [Compound 1, (E)-methyl 6-amino-2-(4-chloro-2,3-difluorophenyl)-5-(2-(trimethylsilyl)vinyl)pyrimidine-4-carboxylate]	100	100	85	90	100	80	50	–	–	–	–	–	–	–
